Measurements from patent US10954252B1, “Inhibitors of human immunodeficiency virus replication” (ViiV HEALTHCARE UK (NO.5) LIMITED, priority 2017, dated 2021).

Tests used:
[1] = test system: recombinant NL4-3 virus (nef section replaced with Renilla luciferase gene) in MT-2 cells; assay: HIV cell culture assay (antiviral activity, luciferase readout); type: cell-based; conditions: MT-2 cells infected for 4-5 days with recombinant NL4-3 luciferase virus
Method: HIV cell culture assay—MT-2 cells, 293T cells and the proviral DNA clone of NL4-3 virus were obtained from the NIH AIDS Research and Reference Reagent Program. MT-2 cells were propagated in RPMI 1640 media supplemented with 10% heat inactivated fetal bovine serum (FBS), 100 μg/ml penicillin G and up to 100 units/mL streptomycin. The 293T cells were propagated in DMEM media supplemented with 10% heat inactivated FBS, 100 μg/mL penicillin G and 100 μg/mL streptomycin. A recombinant NL4-3 proviral clone, in which a section of the nef gene was replaced with the Renilla luciferase gene, was used to make the reference virus used in these studies. The recombinant virus was prepared through transfection of the recombinant NL4-3 proviral clone into 293T cells using Transit-293 Transfection Reagent from Mirus Bio LLC (Madison, Wis.). Supernatent was harvested after 2-3 days and the amount of virus present was titered in MT-2 cells using luciferase enzyme activity as a marker by measuring luciferase enzyme activity. Luciferase was quantitated using the EnduRen Live Cell Substrate from Promega (Madison, Wis.). Antiviral activities of compounds toward the recombinant virus were quantified by measuring luciferase activity in MT-2 cells infected for 4-5 days with the recombinant virus in the presence of serial dilutions of the compound.
The 50% effective concentration (ECs) was calculated by using the exponential form of the median effect equation where (Fa)=1/[1+(ED50/drug conc.)^m] (Johnson Va., Byington RT. Infectivity Assay. In Techniques in HIV Research. ed. Aldovini A, Walker BD. 71-76. New York: Stockton Press. 1990).

[2] = Compound cytotoxicity, XTT-based colorimetric assay; type: cell-based; conditions: human, uninfected MT2 cells
Method: Compound cytotoxicity and the corresponding CC50 values were determined using the same protocol as described in the antiviral assay except that uninfected cells were used. Cytotoxicity was assessed on day 4 in uninfected MT2 cells by using a XTT (2,3-bis[2-Methoxy-4-nitro-5-sulfophenyl]-2H-tetrazolium-5-carboxyanilide inner salt)-based colorimetric assay (Sigma-Aldrich, St Louis, Mo.). Biological data for select compounds of the invention are contained in Table 1 and Table 1a

SMILES	EC50 ([1]; Table 1a) [nM]	CC50 at 4 days ([2]; Table 1a, day 4, XTT) [nM]	EC50 ([1]; Renilla, NL43, Table 1) [nM]	CC50 at 4 days ([2]; Table 1, day 4, XTT) [nM]	EC50 ([1]; Renilla, NL43, Table 1a) [nM]
COc1ccc2c(=O)n(-c3ccc(Cl)c4c(NS(C)(=O)=O)nn(CC(F)F)c34)c([C@H](Cc3cc(F)cc(F)c3)NC(=O)Cn3ccc(C4CC4)n3)nc2n1 (atropisomer, axis not shown) [Example 55.1, N-[(1S)-1-{3-[4-chloro-1-(2,2-difluoroethyl)-3-methanesulfonamido-1H-indazol-7-yl]-7-methoxy-4-oxo-3H,4H-pyrido[2,3-d]pyrimidin-2-yl}-2-(3,5-difluorophenyl)ethyl]-2-(3-cyclopropyl-1H-pyrazol-1-yl)acetamide]	28.5	> 1000	–	–	–
CC(C)c1ccc(-c2c(C(Cc3cc(F)cc(F)c3)NC(=O)Cn3nc(C(F)F)c4c3C(F)(F)[C@@H]3C[C@H]43)ncc3[nH]ncc23)cn1 (mixture of isomers) [Example 10.1]	–	–	140	> 10000	–
Cn1nc(NS(C)(=O)=O)c2c(Cl)ccc(-n3c(C(Cc4cc(F)cc(F)c4)NC(=O)Cn4nc(C(F)F)c5c4C(F)(F)[C@@H]4C[C@H]54)nc4ncc(C#N)cc4c3=O)c21 (mixture of isomers) [Example 37.2, N-(1-(3-(4-chloro-1-methyl-3-(methylsulfonamido)-1H-indazol-7-yl)-6-cyano-4-oxo-3,4-dihydropyrido[2,3-d]pyrimidin-2-yl)-2-(3,5-difluorophenyl)ethyl)-2-((3bS,4aR)-3-(difluoromethyl)-5,5-difluoro-3b,4,4a,5-tetrahydro-1H-cyclopropa[3,4]cyclopenta[1,2-c]pyrazol-1-yl)acetamide]	–	> 10000	–	–	0.54
Cn1nc(NS(C)(=O)=O)c2c(Cl)ccc(-n3c(C(Cc4cc(F)cc(F)c4)NC(=O)Cn4nc(C(F)F)c5c4C(F)(F)[C@@H]4C[C@H]54)nc4nc(C#N)ccc4c3=O)c21 (mixture of isomers) [Example 40.1, N-(1-(3-(4-chloro-1l-methyl-3-(methylsulfonamido)-1H-indazol-7-yl)-7-cyano-4-oxo-3,4-dihydropyrido[2,3-d]pyrimidin-2-yl)-2-(3,5-difluorophenyl)ethyl)-2-((3bS,4aR)-3-(difluoromethyl)-5,5-difluoro-3b,4,4a,5-tetrahydro-1H-cyclopropa[3,4]cyclopenta[1,2-c]pyrazol-1-yl)acetamide]	–	> 1000	–	–	0.58
Cc1ccc2c(=O)n(-c3ccc(Cl)c4c(NS(C)(=O)=O)nn(C)c34)c(C(Cc3cc(F)cc(F)c3)NC(=O)Cn3nc(C(F)F)c4c3C(F)(F)[C@@H]3C[C@H]43)nc2n1 (mixture of isomers) [Example 41.1]	–	> 10000	–	–	21.2
Cc1ccc2c(=O)n(-c3ccc(Cl)c4c(NS(C)(=O)=O)nn(C)c34)c([C@H](Cc3cc(F)cc(F)c3)NC(=O)Cn3nc(C(F)F)c4c3C(F)(F)[C@@H]3C[C@H]43)nc2n1 (mixture of isomers) [Example 41.2, N-[(1S)-1-[3-(4-chloro-3-methanesulfonamido-1-methyl-1H-indazol-7-yl)-7-methyl-4-oxo-3H,4H-pyrido[2,3-d]pyrimidin-2-yl]-2-(3,5-difluorophenyl)ethyl]-2-[(2S,4R)-9-(difluoromethyl)-5,5-difluoro-7,8-diazatricyclo[4.3.0.0^2,4]nona-1(6),8-dien-7-yl]acetamide]	–	> 10000	–	–	0.022
Cc1cc(C)c2c(=O)n(-c3ccc(Cl)c4c(NS(C)(=O)=O)nn(C)c34)c(C(Cc3cc(F)cc(F)c3)NC(=O)Cn3nc(C(F)F)c4c3C(F)(F)[C@@H]3C[C@H]43)nc2n1 (mixture of isomers) [Example 42.1]	–	> 10000	–	–	12
CC(C)n1nc(NS(C)(=O)=O)c2c(Cl)ccc(-n3c(C(Cc4cc(F)cc(F)c4)NC(=O)Cn4nc(C(F)F)c5c4C(F)(F)[C@@H]4C[C@H]54)nc4ncccc4c3=O)c21 (mixture of isomers) [Example 43.1]	–	> 10000	–	–	30
CC(C)n1nc(NS(C)(=O)=O)c2c(Cl)ccc(-n3c([C@H](Cc4cc(F)cc(F)c4)NC(=O)Cn4nc(C(F)F)c5c4C(F)(F)[C@@H]4C[C@H]54)nc4ncccc4c3=O)c21 (mixture of isomers) [Example 43.2, N-[(1S)-1-{3-[4-chloro-3-methanesulfonamido-1-(propan-2-yl)-1H-indazol-7-yl]-4-oxo-3H,4H-pyrido[2,3-d]pyrimidin-2-yl}-2-(3,5-difluorophenyl)ethyl]-2-[(2S,4R)-9-(difluoromethyl)-5,5-difluoro-7,8-diazatricyclo[4.3.0.0^2,4]nona-1(6),8-dien-7-yl]acetamide]	–	> 10000	–	–	0.132
O=C(Cn1nc(C(F)F)c2c1C(F)(F)[C@@H]1C[C@H]21)N[C@@H](Cc1cc(F)cc(F)c1)c1nc2ncccc2c(=O)n1-c1ccc(Cl)c2c(NS(=O)(=O)C3CC3)nn(CC(F)F)c12 (mixture of isomers) [Example 45.2, N-[(1S)-1-{3-[4-chloro-3-cyclopropanesulfonamido-1-(2,2-difluoroethyl)-1H-indazol-7-yl]-4-oxo-3H,4H-pyrido[2,3-d]pyrimidin-2-yl}-2-(3,5-difluorophenyl)ethyl]-2-[(2S,4R)-9-(difluoromethyl)-5,5-difluoro-7,8-diazatricyclo[4.3.0.0^2,4]nona-1(6),8-dien-7-yl]acetamide]	–	> 1000	–	–	0.024
COc1ccc2c(=O)n(-c3ccc(Cl)c4c(NS(C)(=O)=O)nn(CC(F)F)c34)c([C@H](Cc3cc(F)cc(F)c3)NC(=O)Cn3nc(C(F)F)c4c3C(F)(F)[C@@H]3C[C@H]43)nc2n1 (mixture of isomers) [Example 54.2, N-[(1S)-1-{3-[4-chloro-1-(2,2-difluoroethyl)-3-methanesulfonamido-1H-indazol-7-yl]-7-methoxy-4-oxo-3H,4H-pyrido[2,3-d]pyrimidin-2-yl}-2-(3,5-difluorophenyl)ethyl]-2-[(2S,4R)-9-(difluoromethyl)-5,5-difluoro-7,8-diazatricyclo[4.3.0.0^2,4]nona-1(6),8-dien-7-yl]acetamide]	–	> 1000	–	–	0.026
COc1ccc2c(=O)n(-c3ccc(Cl)c4c(NS(=O)(=O)C5CC5)nn(CC(F)F)c34)c([C@H](Cc3cc(F)cc(F)c3)NC(=O)Cn3nc(C(F)F)c4c3C(F)(F)[C@@H]3C[C@H]43)nc2n1 (mixture of isomers) [Example 56.2, N-[(1S)-1-{3-[4-chloro-3-cyclopropanesulfonamido-1-(2,2-difluoroethyl)-1H-indazol-7-yl]-7-methoxy-4-oxo-3H,4H-pyrido[2,3-d]pyrimidin-2-yl}-2-(3,5-difluorophenyl)ethyl]-2-[(2S,4R)-9-(difluoromethyl)-5,85-difluoro-7,8-diazatricyclo[4.3.0.0^2,4]nona-1(6),8-dien-7-yl]acetamide]	–	> 1000	–	–	0.022
COc1cccc2c(=O)n(-c3ccc(Cl)c4c(NS(C)(=O)=O)nn(C)c34)c([C@H](Cc3cc(F)cc(F)c3)NC(=O)Cn3nc(C(F)F)c4c3C(F)(F)[C@@H]3C[C@H]43)nc12 (single isomer, unassigned) [Example 103]	–	> 1000	–	–	–
Cn1nc(NS(C)(=O)=O)c2c(Cl)ccc(-n3c([C@H](Cc4cc(F)cc(F)c4)NC(=O)Cn4ccc(C5CC5)n4)nc4cc(C(F)(F)F)ccc4c3=O)c21 (single isomer, unassigned) [Example 150]	–	> 1000	–	–	–
COc1cc(F)c2c(=O)n(-c3ccc(Cl)c4c(NS(C)(=O)=O)nn(C)c34)c([C@H](Cc3cc(F)cc(F)c3)NC(=O)Cn3ccc(C4CC4)n3)nc2c1 [Example 188, (S)—N-(1-(3-(4-chloro-1-methyl-3-(methylsulfonamido)-1H-indazol-7-yl)-5-fluoro-7-methoxy-4-oxo-3,4-dihydroquinazolin-2-yl)-2-(3,5-difluorophenyl)ethyl)-2-(3-cyclopropyl-1H-pyrazol-1-yl)acetamide]	–	> 1000	–	–	–
Cn1nc(NS(C)(=O)=O)c2c(Cl)ccc(-n3c([C@H](Cc4cc(F)cc(F)c4)NC(=O)Cn4ccc(C5CC5)n4)nc4cc(CS(C)(=O)=O)ccc4c3=O)c21 [Example 205, (S)—N-(1-(3-(4-chloro-1-methyl-3-(methylsulfonamido)-1H-indazol-7-yl)-7-((methylsulfonyl)methyl)-4-oxo-3,4-dihydroquinazolin-2-yl)-2-(3,5-difluorophenyl)ethyl)-2-(3-cyclopropyl-1H-pyrazol-1-yl)acetamide]	–	> 1000	–	–	–
